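Test compounds were applied to cells in 96-well plates for 48 hours at 5 doses. GI50 is the concentration that inhibits growth by half. TGI: concentration producing complete growth inhibition.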 Where only a bound is given, the exact number is not on record here.

What all share (test): growth of human tumour cells (NCI), 48 h
The test system of test [1] is 786-0 renal.
Test [2] deals with A498 renal.
Test [3] relates to HOP-62 NSCLC.
The subject of test [4] is M14 melanoma.
The test system of test [5] is MALME-3M melanoma.
Test [6] has as its system OVCAR-5 ovarian.
Test [7] deals with RPMI-8226 leukemia.
Test [8] relates to SF-295 CNS.
The test system of test [9] is SK-OV-3 ovarian.
The test system of test [10] is MOLT-4 leukemia.

Consider `O=C(O)CNCCc1ccccc1`, for which the TGI in test [1], in [2], in test [3], in test [4], in [5] and in test [6] was more than 100 µM throughout. The TGI in test [7], in test [8] and in [9] was more than 100 µM throughout.

Consider `N#C/C(=C\c1ccc(F)cc1)n1nc2cccc(F)c2n1`, for which the GI50 in test [1] is 7.13 µM; in test [2], 2.04 µM; in test [3], 3.54 µM; in test [4], 3.27 µM; in test [5], 5.03 µM; in test [10], 3.09 µM. Moreover, the GI50 in test [6] is 5.04 µM; in test [7], 3.09 µM; in [8], 3.53 µM. Besides, the TGI in [1] is more than 100 µM; in test [2] it was 7.25 µM; in test [3] it was more than 100 µM; in test [4] it was more than 100 µM; in test [5] it was more than 100 µM; in [10] it was more than 100 µM. Besides, the values for the TGI in test [6], in [7] and in test [8] were more than 100 µM, 87.1 µM and more than 100 µM, respectively.

On to `Cn1c(NCC(CN2CCCC2)OC(=O)c2ccccc2)cc(=O)n(C)c1=O` (stereo not drawn), for which the GI50 in test [1] is more than 100 µM; in [2], more than 100 µM; in [3], more than 100 µM; in test [5], 8.69 µM; in test [10], more than 100 µM; in test [6], more than 100 µM. Besides, the GI50 in test [7], in test [8] and in test [9] was more than 100 µM each time. In addition, the TGI in test [1] is more than 100 µM; in test [2], more than 100 µM; in [3], more than 100 µM; in test [5] it was 40.8 µM; in test [10], more than 100 µM; in [6], more than 100 µM. The TGI in [7], in test [8] and in [9] was more than 100 µM each time.

Consider `O=C1/C(=C\c2ccccc2)CN(C(=O)c2ccccc2)C/C1=C\c1ccccc1`, for which the GI50 in [1] is 2 µM; in [2], 13 µM; in [3] it was 3.21 µM; in test [4], 2.1 µM; in test [5] it was 2.96 µM; in test [10] it was 3.19 µM. Moreover, the GI50 is 2.24 µM in [6], 0.238 µM in test [7] and 3.1 µM in test [9]. The TGI in [1] amounted to 4.44 µM; in [2], 27.4 µM; in test [3] it was 10.7 µM; in test [4] it was 4.79 µM; in test [5], 7.17 µM; in test [10], 43.6 µM. In addition, the TGI in [6] was determined as 6.83 µM; in test [7], 0.747 µM; in test [9], 9.44 µM.

Turning to `Cc1ccc(C(=O)N2CCCCC2)cc1N=NN(C)C`, the TGI in test [1], in [2], in [3], in test [4], in test [5] and in [10] was more than 100 µM throughout. Besides, the TGI in test [6], in test [7] and in [8] was more than 100 µM each time.

For `O=C(CCN1CCC(CCO)CC1)Nc1ccc2c(c1)C(=O)c1ccc(NC(=O)CCN3CCC(CCO)CC3)cc1C2=O`, the TGI in [1] was 27.2 µM; in [2] it was 92.8 µM; in [3], 37.5 µM; in test [5] it was 28.6 µM; in [10] it was 24.5 µM; in test [6], more than 100 µM. For the same molecule, the results for the TGI in test [7], in test [8] and in test [9] were 88.1 µM, more than 100 µM and 46.3 µM, respectively.

For the molecule `CCC(C)(C)[C@H](NC(=O)[C@H]1CCCCN1C)C(=O)N(C)[C@H](C[C@@H](OC(C)=O)c1nc(C(=O)N[C@@H](Cc2ccccc2)C[C@H](C)C(=O)O)cs1)C(C)C`, the GI50 in test [1], in test [2], in test [3], in test [5], in test [10] and in test [6] was less than 0.00167 µM in each case. In addition, the GI50 in test [7], in [8] and in test [9] was less than 0.00167 µM each time. Moreover, the TGI in test [1] was more than 16.7 µM; in test [2], 0.0113 µM; in test [3], more than 16.7 µM; in test [5] it was more than 16.7 µM; in [10], more than 16.7 µM; in test [6] it was more than 16.7 µM. The TGI in test [7] and in test [9] was more than 16.7 µM each time.

Regarding `C/C(=N\O)c1cccc(Nc2cc(-c3ccccc3)nc3c(O)cccc23)c1`, the GI50 is 3.07 µM in test [1]; 3.31 µM in [2]; 3.09 µM in test [3]; 3.47 µM in test [4]; 5.67 µM in test [5]; 12.5 µM in test [6]. Also, the GI50 in test [7] was 2.46 µM; in [8], 0.671 µM; in test [9], 2.62 µM. In addition, the TGI is 11.5 µM in [1]; 18.1 µM in [2]; 15 µM in test [3]; 18.8 µM in [4]; 25.4 µM in test [5]; 32.2 µM in test [6]. Further, the TGI came out at 7.98 µM in test [7] and 25 µM in test [9].

For `CC(C)OCc1cc(CN2CCN(c3cccc(Cl)c3)CC2)c(O)c2ncccc12`, the GI50 in test [1] was 0.785 µM; in test [2], 0.871 µM; in test [3], 0.431 µM; in test [5] it was 1.03 µM; in test [10], 0.362 µM; in test [6], 3.6 µM. In addition, the GI50 in [7] is 0.558 µM; in [8], 1.07 µM; in test [9], 0.71 µM. The TGI in test [1] is 9.56 µM; in test [2], 8.25 µM; in test [3], 6.54 µM; in test [5], 7.33 µM; in [10] it was 3.41 µM; in test [6], 15.1 µM. Also, the TGI in [7] is 13.3 µM; in test [8] it was 11.6 µM; in test [9], 12.2 µM.

(Values after PubChem BioAssay (NCI).)
